Measurements reported in patent US12685731B2, “Organic compounds” (INTRA-CELLULAR THERAPIES, INC., priority 2018, dated 2026).
Read-outs that look alike come from different tables or passages of the source.

Experiments:
[1] = Measurement of parent and metabolite levels in mice (plasma and brain levels after single oral co-dosing); format: in vivo; conditions: for Cmax / Tmax / AUC / concentration at […] / concentration at 0.5 h / concentration at 1 h / concentration at 2 h / concentration at 4 h: mouse, single dose oral, co-dosed; for AUC: 0.25-4 hr sampling; for concentration at […]: 0.25 hr
Protocol: The compound of Example 1 and the compound of Formula Q are co-dosed in mice (n=3), and the levels of the both compounds are studied. Procedures for the synthesis of the compound of Formula Q can be found in WO 2008/112280. […] The mean values for maximum concentration, time to maximum concentration, and Area Under the Curve (AUC) for both compounds is determined.

[2] = system: serotonin receptor (e.g., 5-HT2A); test: Receptor binding studies, serotonin receptor
[3] = system: dopamine receptor (e.g., D2); test: Receptor binding studies, dopamine receptor
serotonin transporter = serotonin transporter (Homo sapiens, UniProt P31645); test: Receptor binding studies, serotonin transporter
[4] = mean n=3, brain, read-out: Brain level
[5] = mean n=3, plasma, read-out: Plasma level

Sequence of serotonin transporter (P31645 whole entry): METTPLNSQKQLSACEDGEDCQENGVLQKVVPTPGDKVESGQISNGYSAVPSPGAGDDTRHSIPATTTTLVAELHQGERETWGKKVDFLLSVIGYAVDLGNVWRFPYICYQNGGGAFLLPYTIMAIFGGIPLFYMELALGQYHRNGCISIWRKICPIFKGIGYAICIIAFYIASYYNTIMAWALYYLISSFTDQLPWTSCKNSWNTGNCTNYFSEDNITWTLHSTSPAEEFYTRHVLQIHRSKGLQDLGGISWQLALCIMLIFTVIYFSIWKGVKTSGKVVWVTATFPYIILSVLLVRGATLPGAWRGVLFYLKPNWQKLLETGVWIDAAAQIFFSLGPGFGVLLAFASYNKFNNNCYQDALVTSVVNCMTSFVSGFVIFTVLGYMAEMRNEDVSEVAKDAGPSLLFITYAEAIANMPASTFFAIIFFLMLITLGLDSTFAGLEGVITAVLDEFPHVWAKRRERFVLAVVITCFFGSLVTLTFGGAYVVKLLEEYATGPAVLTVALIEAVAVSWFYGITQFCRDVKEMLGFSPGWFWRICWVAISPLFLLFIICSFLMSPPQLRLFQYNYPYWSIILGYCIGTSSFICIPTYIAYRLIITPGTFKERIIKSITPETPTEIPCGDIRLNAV

Compound | Metabolic clearance compared to the compound of Formula Q ([1]; concluded from higher Cmax and AUC values) | Cmax ([1]; brain) [ng/g] | Tmax ([1]; brain) [min] | AUC ([1]; brain) [ng·h/mL] | concentration at […] [1, 4] [ng/g] | concentration at 0.5 h [1, 4] [ng/g] | concentration at 1 h [1, 4] [ng/g] | concentration at 2 h [1, 4] [ng/g] | concentration at 4 h [1, 4] [ng/g] | concentration at […] [1, 5] [ng/mL] | concentration at 0.5 h [1, 5] [ng/mL] | concentration at 1 h [1, 5] [ng/mL] | concentration at 2 h [1, 5] [ng/mL] | concentration at 4 h [1, 5] [ng/mL] | Cmax ([1]; plasma) [ng/mL] | Tmax ([1]; plasma) [min] | AUC ([1]; plasma) [ng·h/mL] | Receptor binding profile compared to the compound of Formula Q [2] | Receptor binding profile compared to the compound of Formula Q [3] | Receptor binding profile compared to the compound of Formula Q (serotonin transporter)
[2H]C1([2H])N(C)c2cccc3c2N([C@H]2CCN(CCCC(=O)c4ccc(F)cc4)C[C@@H]32)C1([2H])[2H] [Example 1, 1-(4-fluorophenyl)-4-((6bR,10aS)-1,1,2,2-tetradeuterio-3-methyl-2,3,6b,7,10,10a-hexahydro-1H-pyrido[3′,4′:4,5]pyrrolo[1,2,3-de]quinoxalin-8(9H)-yl) butan-1-one p-toluenesulfonate] | reduced metabolic clearance | 402 | 30 | 404 | 238 | 402 | 39.4 | 67.7 | 62.1 | 30.4 | 38.1 | 11.6 | 31.4 | 16.8 | 38.1 | 30 | 94.5 | substantially the same receptor binding profile | substantially the same receptor binding profile | substantially the same receptor binding profile
CN1CCN2c3c(cccc31)[C@@H]1CN(CCCC(=O)c3ccc(F)cc3)CC[C@@H]12 [Formula Q, reference compound] | – | 384 | 30 | 387 | 228 | 384 | 37.9 | 65.6 | 58.8 | 28.2 | 34.9 | 11 | 29.9 | 16.3 | 34.9 | 30 | 89.5 | – | – | –
